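Protocol summary: plate cells (96-well), add compound at 5 concentrations, incubate 48 h, interpolate endpoints linearly. Abbreviation: GI50, concentration required for 50% inhibition of growth.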 The source made the active and inactive calls. Cut-off read from the data, not from the text of the source: active = GI50 up to about 1.1 µM and inactive = higher.
Assays:
Experiment in all cases: inhibition of tumour cell growth, NCI panel, 48 h
786-0 = tested on: 786-0
A498 = tested on: A498
CAKI-1 = tested on: CAKI-1
HCC 2998 = tested on: HCC 2998
LOX IMVI = tested on: LOX IMVI
M14 = tested on: M14
MDA-MB-231 = tested on: MDA-MB-231
MDA-N = tested on: MDA-N
MOLT-4 = tested on: MOLT-4
Malme-3M = tested on: Malme-3M
PC-3 = tested on: PC-3
SF-268 = tested on: SF-268
SF-295 = tested on: SF-295
SK-MEL-28 = tested on: SK-MEL-28
SK-MEL-5 = tested on: SK-MEL-5
T47D = tested on: T47D
UACC-257 = tested on: UACC-257
UACC-62 = tested on: UACC-62
OVCAR-4 = tested on: OVCAR-4
NCI-H226 = tested on: NCI-H226

Structure (SMILES) | GI50 (786-0) | GI50 (A498) | GI50 (CAKI-1) | GI50 (HCC 2998) | GI50 (LOX IMVI) | GI50 (M14) | GI50 (MDA-MB-231) | GI50 (MDA-N) | GI50 (MOLT-4) | GI50 (Malme-3M) | GI50 (PC-3) | GI50 (SF-268) | GI50 (SF-295) | GI50 (SK-MEL-28) | GI50 (SK-MEL-5) | GI50 (T47D) | GI50 (UACC-257) | GI50 (UACC-62) | GI50 (OVCAR-4) | GI50 (NCI-H226)
CCOC(=O)C(c1c[nH]c2ccccc12)(c1c[nH]c2ccccc12)c1c[nH]c2ccccc12 | 44.5 µM (inactive) | 35.2 µM (inactive) | 29.4 µM (inactive) | 17.1 µM (inactive) | 31.9 µM (inactive) | 28.3 µM (inactive) | 36.8 µM (inactive) | 31.9 µM (inactive) | 5.87 µM (inactive) | 30.4 µM (inactive) | 19.7 µM (inactive) | 32.8 µM (inactive) | 30.4 µM (inactive) | 33.7 µM (inactive) | 34.4 µM (inactive) | 16.2 µM (inactive) | 34 µM (inactive) | 25.9 µM (inactive) | – | –
CC(C)CCCC(C)[C@H]1CC[C@H]2[C@@H]3CC[C@H]4C[C@@H](CCC=C(c5cc(Cl)c(O)c(C(=O)OC(C)C)c5)c5cc(Cl)c(O)c(C(=O)OC(C)C)c5)CC[C@]4(C)[C@H]3CC[C@]12C (some centres not stated) | > 50 µM (inactive) | > 50 µM (inactive) | > 50 µM (inactive) | > 50 µM (inactive) | > 50 µM (inactive) | > 50 µM (inactive) | > 50 µM (inactive) | > 50 µM (inactive) | > 50 µM (inactive) | – | > 50 µM (inactive) | > 50 µM (inactive) | > 50 µM (inactive) | > 50 µM (inactive) | > 50 µM (inactive) | > 50 µM (inactive) | – | > 50 µM (inactive) | > 50 µM (inactive) | –
Cc1ccc(C2CC(=O)CC(c3ccc(C)cc3)C23C(=O)NC(=O)NC3=O)cc1 (configuration not stated) | > 100 µM (inactive) | – | > 100 µM (inactive) | > 100 µM (inactive) | > 100 µM (inactive) | > 100 µM (inactive) | > 100 µM (inactive) | > 100 µM (inactive) | 45 µM (inactive) | > 100 µM (inactive) | > 100 µM (inactive) | > 100 µM (inactive) | > 100 µM (inactive) | > 100 µM (inactive) | > 100 µM (inactive) | > 100 µM (inactive) | > 100 µM (inactive) | > 100 µM (inactive) | 71.1 µM (inactive) | > 100 µM (inactive)
O=C1OC(C(O)CO)C(O)=C1O (configuration not stated) | > 100 µM (inactive) | – | > 100 µM (inactive) | > 100 µM (inactive) | > 100 µM (inactive) | > 100 µM (inactive) | > 100 µM (inactive) | > 100 µM (inactive) | > 100 µM (inactive) | > 100 µM (inactive) | > 100 µM (inactive) | > 100 µM (inactive) | > 100 µM (inactive) | > 100 µM (inactive) | > 100 µM (inactive) | > 100 µM (inactive) | > 100 µM (inactive) | – | > 100 µM (inactive) | > 100 µM (inactive)
C=C(C)C12OC1[C@@]1(C)C(=CC2=O)CCC(O)[C@@H]1C (some centres not stated) | 1.64 µM (inactive) | 5.19 µM (inactive) | 0.398 µM (active) | 0.718 µM (active) | 2.67 µM (inactive) | 3.72 µM (inactive) | 1.52 µM (inactive) | 2.68 µM (inactive) | 0.863 µM (active) | 3.38 µM (inactive) | 2.65 µM (inactive) | 2.14 µM (inactive) | 2.58 µM (inactive) | 3.89 µM (inactive) | 3.22 µM (inactive) | 3.16 µM (inactive) | 3.34 µM (inactive) | 3.66 µM (inactive) | 3.45 µM (inactive) | –
Nc1nc2c(c(-c3ccccc3Cl)n1)COC/C2=C\c1ccccc1Cl | 17.2 µM (inactive) | 16.4 µM (inactive) | 16.3 µM (inactive) | 19.5 µM (inactive) | 18.7 µM (inactive) | 15.7 µM (inactive) | 16.9 µM (inactive) | 10.9 µM (inactive) | 12.9 µM (inactive) | – | 14.3 µM (inactive) | 16.9 µM (inactive) | 14.3 µM (inactive) | – | 16.4 µM (inactive) | 17.1 µM (inactive) | 18.7 µM (inactive) | 16 µM (inactive) | 19.7 µM (inactive) | 18.8 µM (inactive)
CC1(CO)COC(C)(C)OC1 | – | > 100 µM (inactive) | – | > 100 µM (inactive) | > 100 µM (inactive) | – | > 100 µM (inactive) | > 100 µM (inactive) | > 100 µM (inactive) | – | > 100 µM (inactive) | > 100 µM (inactive) | > 100 µM (inactive) | > 100 µM (inactive) | > 100 µM (inactive) | > 100 µM (inactive) | > 100 µM (inactive) | – | > 100 µM (inactive) | > 100 µM (inactive)
COc1ccc(/N=N/C(=N\c2ccc(F)cc2)c2ccc(N(CCC#N)CCC#N)cc2)cc1 | 42.3 µM (inactive) | 21.4 µM (inactive) | 81.8 µM (inactive) | 19.1 µM (inactive) | – | 28.6 µM (inactive) | 14.3 µM (inactive) | 29.9 µM (inactive) | 31.2 µM (inactive) | – | 24.1 µM (inactive) | 35.2 µM (inactive) | 32.9 µM (inactive) | 39 µM (inactive) | 12.4 µM (inactive) | 11.2 µM (inactive) | 19 µM (inactive) | 15.7 µM (inactive) | 40.9 µM (inactive) | > 100 µM (inactive)

Reference: ChEMBL document CHEMBL1201862, “PubChem BioAssay data set” (2004)
